# Experimental data taken from publication PMC6193035, “Novel small molecules affecting cell membrane as potential therapeutics for avian pathogenic Escherichia coli” (Scientific Reports, 2018).
# Marks after values point to notes of the source that are not given here.
# Tests used:
# [1] = tested on: APEC O78; assay: MIC and MBC determination in M63 media; assay type: cell-based, Escherichia coli
# Outline: (§1)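 Compound (1 µL per concentration) was added to 100 µL of APEC culture adjusted to OD600 0.05 in M63 medium, and growth was followed by OD600 absorbance. MIC was taken as the lowest concentration without elevated OD600. MBC was the absence of growth on LB agar after subculture.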
# [2] = tested on: APEC O1; assay: MIC and MBC determination in M63 media; assay type: cell-based; details: Escherichia coli
# [3] = tested on: APEC O2; assay: MIC and MBC determination in M63 media; assay type: cell-based; details: Escherichia coli
# [4] = tested on: APEC O8; assay: MIC and MBC determination in M63 media; assay type: cell-based; details: Escherichia coli
# [5] = tested on: APEC O15; assay: MIC and MBC determination in M63 media; assay type: cell-based; details: Escherichia coli
# [6] = tested on: APEC O18; assay: MIC and MBC determination in M63 media; assay type: cell-based; details: Escherichia coli
# [7] = tested on: APEC O35; assay: MIC and MBC determination in M63 media; assay type: cell-based; details: Escherichia coli
# [8] = tested on: APEC O109; assay: MIC and MBC determination in M63 media; assay type: cell-based; details: Escherichia coli
# [9] = tested on: APEC O78-53; assay: MIC and MBC determination in M63 media; assay type: cell-based; details: Escherichia coli; APEC O78-53, M63 media
# Outline: as §1
# [10] = tested on: APEC O1-63; assay: MIC and MBC determination in M63 media; assay type: cell-based; details: Escherichia coli; APEC O1-63, M63 media
# [11] = tested on: APEC O2-211; assay: MIC and MBC determination in M63 media; assay type: cell-based; details: Escherichia coli; APEC O2-211, M63 media
# [12] = tested on: biofilm embedded APEC O78; assay: MBEC High-throughput (HTP) assay; assay type: cell-based, Escherichia coli
# [13] = tested on: APEC O78; assay: Bacterial cytological profiling by confocal microscopy; assay type: cell-based, Escherichia coli; details: 2X MBC, 2 h
# Outline: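 After compound treatment, bacteria were washed, resuspended in PBS and stained with FM4-64 (1 µg/mL) and SYTO-9 (5 µM) for 45 mins at room temperature with shaking. Cells were then concentrated 10-fold in PBS and imaged by confocal microscopy to profile the pathways targeted.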
# [14] = tested on: APEC O78; assay: Loss of 260/280 nm absorbing materials assay; assay type: cell-based, Escherichia coli; details: 2X MBC, 1 h
# Method: Membrane permeability assays (crystal violet (CV) uptake and loss of 260/280 nm absorbing materials) were conducted as described previously. […] CV uptake was measured using the formula: (OD DMSO − OD SM/OD DMSO × 100). Two independent experiments in duplicates were conducted.
# [15] = tested on: intracellular APEC O1 in HD11 cells; assay: Intracellular survival assay; assay type: cell-based, Escherichia coli
# Outline: (§2)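 Mid-log APEC O78, O1 or O2 infected macrophages (HD11, THP-1) for 1 h and Caco-2 epithelial cells for 3 h at MOI 10 in serum- and antibiotic-free medium. Cells lysed with 0.1% Triton X-100 and viable intracellular bacteria counted on LB agar, compared with 1% DMSO wells; two experiments in duplicate.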
# [16] = tested on: intracellular APEC O1 in THP-1 cells; assay: Intracellular survival assay; assay type: cell-based, Escherichia coli
# Outline: as §2
# [17] = tested on: intracellular APEC O2 in Caco-2 cells; assay: Intracellular survival assay; assay type: cell-based, Escherichia coli
# Outline: as §2
# [18] = tested on: intracellular APEC O78 in HD11 cells; assay: Intracellular survival assay; assay type: cell-based, Escherichia coli
# Outline: as §2
compound,measurement,setting,value
COc1ccc(CCN(Cc2cc3c(cc2Cl)OCO3)CC2CCN(C)CC2)cc1 [SM11],MBC relative to MIC,[1],identical to MIC
same,MIC,[1]; Escherichia coli,100 µM
same,MBC,"[1]; Escherichia coli, subculture on LB agar",100 µM
same,MBC,[2],100 µM
same,MIC,[2],100 µM
same,MBC,[3],200 µM
same,MIC,[3],100 µM
same,MBC,[4],200 µM
same,MIC,[4],200 µM
same,MBC,[5],100 µM
same,MIC,[5],100 µM
same,MBC,[6],200 µM
same,MIC,[6],200 µM
same,MBC,[7],200 µM
same,MIC,[7],100 µM
same,MBC,[8],200 µM
same,MIC,[8],200 µM
same,MBC,[9],200 µM
same,MIC,[9],100 µM
same,MBC,[10],200 µM
same,MIC,[10],100 µM
same,MBC,[11],100 µM
same,MIC,[11],100 µM
same,MBEC as multiple of MIC (superscript),[12]; 18 h challenge in M63 media,d (4X MIC)
same,MBEC as multiple of MIC,[12]; tested 0.5X to 8X MIC,4 X MIC
same,cytological profile (FM4-64 / SYTO-9 staining),[13],bright red foci at random positions throughout the cell indicating membrane defects (membrane pore formers)
same,260 nm absorbing materials in supernatant compared with DMSO,[14],"significantly (P < 0.05, Student’s t-test) increased"
same,280 nm absorbing materials in supernatant compared with DMSO,[14],"significantly (P < 0.05, Student’s t-test) increased"
same,Absorbance 280 nm of treated supernatant,"[14]; DMSO 2.58, superscript a P < 0.05 vs DMSO",2.89^a
same,Absorbance 260 nm of treated supernatant,"[14]; DMSO 3.77, superscript a P < 0.05 vs DMSO",4.00^a
same,minimal effective concentration,"[15]; Escherichia coli, O1, HD11, 6 h treatment, read-out: SMs intracellular APEC clearance concentration",200 µM
same,concentration at which the SM significantly (P < 0.01) reduced intracellular APEC (superscript of t-statistic),"[15]; O1, HD11, 6 h",b (1X MIC)
same,minimal effective concentration,"[16]; Escherichia coli, O1, THP-1, 6 h treatment, read-out: SMs intracellular APEC clearance concentration",> 200 µM
same,concentration at which the SM significantly (P < 0.01) reduced intracellular APEC (superscript of t-statistic),"[16]; O1, THP-1, 6 h",b (1X MIC)
same,minimal effective concentration,"[17]; Escherichia coli, O2, Caco-2, 6 h treatment, read-out: SMs intracellular APEC clearance concentration",200 µM
same,intracellular APEC clearance concentration as multiple of MIC (superscript),"[17]; O2, Caco-2",b (2X MIC)
same,concentration at which the SM significantly (P < 0.01) reduced intracellular APEC (superscript of t-statistic),"[17]; O2, Caco-2, 6 h",b (1X MIC)
same,minimal effective concentration,"[18]; Escherichia coli, O78, HD11, 6 h treatment, read-out: SMs intracellular APEC clearance concentration",100 µM
same,intracellular APEC clearance concentration as multiple of MIC (superscript),"[18]; O78, HD11",a (1X MIC)
same,concentration at which the SM significantly (P < 0.01) reduced intracellular APEC (superscript of t-statistic),"[18]; O78, HD11, 6 h",a (0.5X MIC)
